This is an account of results in patent US11331298B2, “Powder solid dispersions comprising quercetin, process for their preparation and formulations thereof” (INDENA S.P.A., priority 2017, dated 2022).

The nature of series [1]: Solubility studies in simulated gastro-intestinal fluids. Format: physicochemical. The settings on record: excess analyte, magnetic stirring 2 hours, HPLC. The source says: Quercetin dihydrate, quercetin powder solid dispersion obtained in Example 1 and a mechanical (physical) mixture of the component of the said solid dispersion were subjected to comparative solubility experiments, in the presence of high excess of analyte, using the following simulated gastro-intestinal fluids: • fasted state simulated gastric fluid; • fasted state simulated intestinal fluid; • fed state simulated intestinal fluid.
Equivalent amounts of quercetin were used during the experiments. Quercetin dihydrate, quercetin powder solid dispersion of Example 1 and the mechanical (physical) mixture were kept under magnetic stirring for 2 hours. The supernatant was filtered and the quercetin concentration was calculated by HPLC analysis.

Series [2] can be described thus: Single dose randomized, crossover pharmacokinetic study in healthy volunteers. Type of series: in vivo, human. Conditions: fasting, single oral dose, 500 mg film-coated tablets, mean. Here is the method: A single dose randomized, crossover pharmacokinetic study in healthy volunteers under fasting conditions was performed using film-coated tablets containing 500 mg of (unformulated) quercetin dihydrate, 500 mg of quercetin (40%) powder solid dispersion (corresponding to 200 mg of quercetin dihydrate) and 250 mg of quercetin (40%) powder solid dispersion (corresponding to 100 mg of quercetin dihydrate).

In the case of `O=c1c(O)c(-c2ccc(O)c(O)c2)oc2cc(O)cc(O)c12` [Quercetin dihydrate, 2-(3,4-Dihydroxyphenyl)-3,5,7-trihydroxy-4H-chromen-4-one], the “Quercetin concentration (solubility)” value in series [1] (Fasted state simulated gastric fluid (pH 1.6)) is “<LOD”; in series [1] (Fasted state simulated intestinal fluid (pH 6.5)) it was 7.5 µg/mL; in series [1] (Fed state simulated intestinal fluid (pH 5.0)), 19.1 µg/mL. Further, the Cmax (in general, the maximum level reached in the sampled fluid or tissue) in series [2] is reported as 10.93 ng/mL. The AUC(0-inf) (commonly total exposure, with the tail of the curve extrapolated) in series [2] (human, in vivo) was 90.1 ng·h/mL.
